In patent publication US4971962A, “Cephalosporin compounds” (Lucky, Ltd., priority 1988, dated 1990):
Values after ≈ are worked out from the molar mass of the structure shown. Where two headings read alike, the source gives them in different places.

Tests used:
[1] = system: Bacillus subtilis ATCC 6633; assay: In-vitro antibacterial activity (MIC), two-fold dilution method; format: cell-based; settings: read-out: minimal inhibitory concentration (MIC)
Experimental: (§1) In-vitro antibacterial activity was determined by the two-fold dilution method as described below. 2 μl of the test microorganism which has the 10^7 CFU per ml was inoculated on the Muller-Hinton agar which has been dispersed by the test compound, and was incubated at 37° C. for 20 hours.

[2] = system: Enterobacter aerogenes ATCC 29751; assay: as above; format: cell-based; settings: Klebsiella aerogenes, read-out: minimal inhibitory concentration (MIC)
Experimental: as §1

[3] = system: Escherichia coli ATCC 10536; assay: as above; format: cell-based; settings: read-out: minimal inhibitory concentration (MIC)
Experimental: as §1

[4] = system: Klebsiella pneumoniae ATCC 10031; assay: as above; format: cell-based; settings: read-out: minimal inhibitory concentration (MIC)
Experimental: as §1

[5] = system: Proteus mirabilis ATCC 25933; assay: as above; format: cell-based; settings: read-out: minimal inhibitory concentration (MIC)
Experimental: as §1

[6] = system: Pseudomonas aeruginosa ATCC 10145; assay: as above; format: cell-based; settings: read-out: minimal inhibitory concentration (MIC)
Experimental: as §1

[7] = system: Pseudomonas aeruginosa ATCC 25619; assay: as above; format: cell-based; settings: read-out: minimal inhibitory concentration (MIC)
Experimental: as §1

[8] = system: Pseudomonas aeruginosa ATCC 27853; assay: as above; format: cell-based; settings: read-out: minimal inhibitory concentration (MIC)
Experimental: as §1

[9] = system: Salmonella typhimurium ATCC 14028; assay: as above; format: cell-based; settings: Salmonella enterica, read-out: minimal inhibitory concentration (MIC)
Experimental: as §1

[10] = system: Serratia marcescens ATCC 27117; assay: as above; format: cell-based; settings: read-out: minimal inhibitory concentration (MIC)
Experimental: as §1

[11] = system: Staphylococcus aureus ATCC 10537; assay: as above; format: cell-based; settings: read-out: minimal inhibitory concentration (MIC)
Experimental: as §1

[12] = system: gram-negative bacteria including Pseudomonas aeruginosa; assay: In-vitro antibacterial activity, comparison over gram-negative bacteria; format: cell-based; settings: from Table 1
Experimental: as §1

[13] = system: gram-positive bacteria, especially, Staphylococcus aureus and Bacillus subtilis; assay: In-vitro antibacterial activity, comparison over gram-positive bacteria; format: cell-based; settings: from Table 1
Experimental: as §1

[14] = rat (SD), i.v. 20 mg/kg, II Compartment; cited from earlier work
[15] = dog (Beagle), i.v. 20 mg/kg, II Compartment; cited from earlier work
[16] = monkey (Rhesus), i.v. 20 mg/kg, II Compartment; cited from earlier work
[17] = Pharmacokinetics of compound (Ib) in rat, intravenous, plasma by HPLC; format: in vivo, rat (Fischer); settings: for half-life: rat, 14.29 mg/kg
Experimental: The pharmacokinetics of the invented compound (Ib) was studied in rat (Fischer, 6~10 weeks). The compound (Ib) was dissolved in phosphate bupper solution(0.05M; pH=9) and intraveneouly administered in a dose of 14.29 mg/kg to four rats, and blood samples from the rats were taken at 1, 5, 10 and 30 mins and 1, 2, 3, 5 and 7 hours after administration of the compound (Ib), respectively.
The concentrations in plasma were measured by HPLC analysis of blood samples, and the results of average concentrations in plasma were listed in Table 2.

[18] = Bacillus subtilis, ATCC6633, 20 h
[19] = ATCC29751, Enterobacter aerogenes ATCC 29751, Muller-Hinton agar, 37° C., 20 hours
[20] = ATCC10536, Escherichia coli ATCC 10536, Muller-Hinton agar, 37° C., 20 hours
[21] = ATCC10031, Klebsiella pneumoniae ATCC 10031, Muller-Hinton agar, 37° C., 20 hours
[22] = ATCC25933, Proteus mirabilis ATCC 25933, Muller-Hinton agar, 37° C., 20 hours
[23] = ATCC10145, Pseudomonas aeruginosa ATCC 10145, Muller-Hinton agar, 37° C., 20 hours
[24] = ATCC25619, Pseudomonas aeruginosa ATCC 25619, Muller-Hinton agar, 37° C., 20 hours
[25] = ATCC27853, Pseudomonas aeruginosa ATCC 27853, Muller-Hinton agar, 37° C., 20 hours
[26] = Salmonella typhimurium ATCC 14028, Muller-Hinton agar, 37° C., 20 hours
[27] = ATCC27117, Serratia marcescens ATCC 27117, Muller-Hinton agar, 37° C., 20 hours
[28] = Staphylococcus aureus, ATCC10537, 20 h
[29] = ATCC6633, Bacillus subtilis ATCC 6633, Muller-Hinton agar, 37° C., 20 hours
[30] = ATCC10537, Staphylococcus aureus ATCC 10537, Muller-Hinton agar, 37° C., 20 hours
[31] = Pseudomonas aeruginosa, ATCC10145, 20 h

SMILES: CC(=O)OCC1=C(C(=O)O)N2C(=O)C(NC(=O)/C(=N\OCc3ccco3)c3csc(N)n3)C2SC1 (centres unmarked) [(Ia), 7-[(Z)-2-(2-Aminothiazol-4-yl)-2-(2-furfuryl-oxyimino)acetamido]-3-acetoxymethyl-3-cephem-4-carboxylic acid]
- MIC [1, 18]: 0.5 µg/mL (≈ 0.959 µM)
- MIC [2, 19]: 16 µg/mL (≈ 30.7 µM)
- MIC [3, 20]: 0.5 µg/mL (≈ 0.959 µM)
- MIC [4, 21]: < 0.0312 µg/mL
- MIC [5, 22]: 0.125 µg/mL (≈ 0.24 µM)
- MIC [6, 23]: 16 µg/mL (≈ 30.7 µM)
- MIC [7, 24]: 1 µg/mL (≈ 1.92 µM)
- MIC [8, 25]: 16 µg/mL (≈ 30.7 µM)
- MIC [9, 26]: 2 µg/mL (≈ 3.83 µM)
- MIC [10, 27]: 1 µg/mL (≈ 1.92 µM)
- MIC [11, 28]: 1 µg/mL (≈ 1.92 µM)
- activity against gram-negative bacteria as compared with ceftazidime and moxalactam [12]: almost equally active
- activity against gram-positive bacteria as compared with ceftazidime and moxalactam [13]: superior antimicrobiral activities

SMILES: Cn1nnnc1SCC1=C(C(=O)O)N2C(=O)C(NC(=O)/C(=N\OCc3ccco3)c3csc(N)n3)C2SC1 (centres unmarked) [(Ic), Sodium 7-[(Z)-2-(2-aminothiazol-4-yl)-2-(2-furfuryloxyimino)-acetamido]-3-[(1-methyl-1H-tetrazol-5-yl)thiomethyl]-3-cephem-4-carboxylate]
- MIC [1, 29]: 0.5 µg/mL
- MIC [2, 19]: 8 µg/mL
- MIC [3, 20]: 0.5 µg/mL
- MIC [4, 21]: < 0.0315 µg/mL
- MIC [5, 22]: 0.25 µg/mL
- MIC [6, 23]: 16 µg/mL
- MIC [7, 24]: 1 µg/mL
- MIC [8, 25]: 16 µg/mL
- MIC [9, 26]: 2 µg/mL
- MIC [10, 27]: 1 µg/mL
- MIC [11, 30]: 1 µg/mL
- activity against gram-negative bacteria as compared with ceftazidime and moxalactam [12]: almost equally active
- activity against gram-positive bacteria as compared with ceftazidime and moxalactam [13]: superior antimicrobiral activities

SMILES: CO/N=C(\C(=O)N[C@@H]1C(=O)N2C(C(=O)O)=C(COC(C)=O)CS[C@H]12)c1csc(N)n1 [Cefotaxime]
- AUC [14]: 13500 ng·h/mL
- T1/2 (α) [14]: 4.55 min
- T1/2 (β) [14]: 14.8 min

SMILES: CC(C)(O/N=C(\C(=O)N[C@@H]1C(=O)N2C(C(=O)[O-])=C(C[n+]3ccccc3)CS[C@H]12)c1csc(N)n1)C(=O)O [Ceftazidime, reference compound]
- MIC [1, 18]: 16 µg/mL (≈ 29.3 µM)
- MIC ([2]; ATCC29751, 20 h): 4 µg/mL (≈ 7.32 µM)
- MIC ([3]; Escherichia coli, ATCC10536, 20 h): 0.125 µg/mL (≈ 0.229 µM)
- MIC ([4]; Klebsiella pneumoniae, ATCC10031, 20 h): 0.125 µg/mL (≈ 0.229 µM)
- MIC ([5]; Proteus mirabilis, ATCC25933, 20 h): 0.0625 µg/mL (≈ 0.114 µM)
- MIC [6, 31]: 2 µg/mL (≈ 3.66 µM)
- MIC ([7]; Pseudomonas aeruginosa, ATCC25619, 20 h): 1 µg/mL (≈ 1.83 µM)
- MIC ([8]; Pseudomonas aeruginosa, ATCC27853, 20 h): 2 µg/mL (≈ 3.66 µM)
- MIC ([9]; 20 h): 0.25 µg/mL (≈ 0.457 µM)
- MIC ([10]; Serratia marcescens, ATCC27117, 20 h): 0.0625 µg/mL (≈ 0.114 µM)
- MIC [11, 28]: 4 µg/mL (≈ 7.32 µM)
- AUC [15]: 93000 ng·h/mL

SMILES: CO/N=C(\C(=O)N[C@@H]1C(=O)N2C(C(=O)O)=C(CSc3nc(=O)c(=O)[nH]n3C)CS[C@H]12)c1csc(N)n1 [Ceftriaxone]
- AUC [15]: 84300 ng·h/mL
- T1/2 (α) [15]: 6.80 min
- T1/2 (β) [15]: 50.7 min
- AUC [16]: 838000 ng·h/mL
- T1/2 (α) [16]: 23.16 min
- T1/2 (β) [16]: 204 min

SMILES: Nc1nc(/C(=N/OCc2ccco2)C(=O)NC2C(=O)N3C(C(=O)[O-])=C(C[n+]4ccccc4)CSC23)cs1 (centres unmarked) [Compound (Ib), 7-[(Z)-2-(2-Aminothiazol-4-yl)-2-(2-furfuryl-oxyimino)acetamido]-3-(1-pyridiniummethyl)-3-cephem-4-carboxylate]
- MIC [1, 29]: 0.25 µg/mL (≈ 0.462 µM)
- MIC [2, 19]: 4 µg/mL (≈ 7.4 µM)
- MIC [3, 20]: 0.5 µg/mL (≈ 0.925 µM)
- MIC [4, 21]: 0.0625 µg/mL (≈ 0.116 µM)
- MIC [5, 22]: 0.5 µg/mL (≈ 0.925 µM)
- MIC [6, 23]: 8 µg/mL (≈ 14.8 µM)
- MIC [7, 24]: 1 µg/mL (≈ 1.85 µM)
- MIC [8, 25]: 8 µg/mL (≈ 14.8 µM)
- MIC [9, 26]: 2 µg/mL (≈ 3.7 µM)
- MIC [10, 27]: 0.5 µg/mL (≈ 0.925 µM)
- MIC [11, 28]: 0.25 µg/mL (≈ 0.462 µM)
- AUC ratio to cefotaxime ([17]; Ib in rat vs cefotaxime in rat): 6.5 times
- T1/2 (β) ratio to cefotaxime in rat ([17]; Ib in rat vs cefotaxime in rat): 6.4 times
- T1/2 (β) ratio to ceftazidime or ceftriaxone in dog ([17]; Ib in rat vs ceftazidime or ceftriaxone in dog): 1.9 times
- AUC ([17]; plasma, iv, rat (Fischer), i.v. 14.29 mg/kg, II Compartment): 62400 ng·h/mL
- concentration at 1 min ([17]; plasma, iv, rat (Fischer), i.v. 14.29 mg/kg, average of four rats, 1 min): 112000 ng/mL
- concentration at 5 min ([17]; plasma, iv, rat (Fischer), i.v. 14.29 mg/kg, average of four rats, 5 min): 60600 ng/mL
- concentration at 10 min ([17]; plasma, iv, rat (Fischer), i.v. 14.29 mg/kg, average of four rats, 10 min): 43000 ng/mL
- concentration at 0.5 h ([17]; plasma, iv, rat (Fischer), i.v. 14.29 mg/kg, average of four rats, 30 min): 20700 ng/mL
- concentration at 1 h ([17]; plasma, iv, rat (Fischer), i.v. 14.29 mg/kg, average of four rats, 1 hr): 12600 ng/mL
- concentration at 2 h ([17]; plasma, iv, rat (Fischer), i.v. 14.29 mg/kg, average of four rats, 2 hr): 6100 ng/mL
- concentration at 3 h ([17]; plasma, iv, rat (Fischer), i.v. 14.29 mg/kg, average of four rats, 3 hr): 4300 ng/mL
- concentration at 5 h ([17]; plasma, iv, rat (Fischer), i.v. 14.29 mg/kg, average of four rats, 5 hr): 1600 ng/mL
- concentration at 7 h ([17]; plasma, iv, rat (Fischer), i.v. 14.29 mg/kg, average of four rats, 7 hr): 900 ng/mL
- half-life ([17]; plasma, iv, rat (Fischer), i.v. 14.29 mg/kg, II Compartment, read-out: T1/2 (α)): 6.21 min
- half-life ([17]; plasma, iv, rat (Fischer), i.v. 14.29 mg/kg, II Compartment, read-out: T1/2 (β)): 95 min
- activity against gram-negative bacteria as compared with ceftazidime and moxalactam [12]: almost equally active
- activity against gram-positive bacteria as compared with ceftazidime and moxalactam [13]: superior antimicrobiral activities

SMILES: CO[C@@]1(NC(=O)C(C(=O)O)c2ccc(O)cc2)C(=O)N2C(C(=O)O)=C(CSc3nnnn3C)CO[C@@H]21 (some centres unmarked) [Moxalactam, reference compound]
- MIC [1, 18]: 8 µg/mL (≈ 15.4 µM)
- MIC [2, 19]: 1 µg/mL (≈ 1.92 µM)
- MIC [3, 20]: 0.125 µg/mL (≈ 0.24 µM)
- MIC [4, 21]: 0.25 µg/mL (≈ 0.48 µM)
- MIC [5, 22]: 0.25 µg/mL (≈ 0.48 µM)
- MIC [6, 31]: 32 µg/mL (≈ 61.5 µM)
- MIC [7, 24]: 8 µg/mL (≈ 15.4 µM)
- MIC [8, 25]: 16 µg/mL (≈ 30.7 µM)
- MIC [9, 26]: 0.25 µg/mL (≈ 0.48 µM)
- MIC [10, 27]: 0.125 µg/mL (≈ 0.24 µM)
- MIC [11, 30]: 4 µg/mL (≈ 7.69 µM)
